Laboratory results from patent US7473789B2, “9-(1′,5′-dimethyl-1′-vinyl -4′- hexenyl)-4-hydroxy-7H-furo[3,2-γ] [1] benzopyran-7-one as antibacterial agent” (Takasago International Corporation, priority 2004, dated 2009).
In brackets after ≈: the same amount, converted by molar mass. Read-outs that look alike come from different tables or passages of the source. Values belong to the compound of their own block, whether it stands above or below them.

How the values were obtained:
Format in all cases: cell-based
[1] = test system: Staphyrococcus epidermidis var. h-6 Takasago isolate; test: MIC by Agar Dilution Test, Se-2; details: read-out: Minimum inhibitory concentration (MIC)
Procedure: (§1) Minimum inhibitory concentration (MIC) was determined by Agar Dilution Test (ADT).
(§2) Samples were dissolved in ethanol or water (according to solubility of each sample) to carry out two-fold serial dilution. A hundred μl of the resultant was added to a 10 ml sterilized agar medium (skin-related bacteria and standard bacteria in Mueller-Hinton Medium (Difco), yeast and filamentous bacteria in Sabroud Medium (Difco) and anaerobic bacteria in Trypticase Soy agar(BBL)), well agitated, transferred to a 9 cmf petri dish and immobilized at room temperature. To this petri dish, a 27-spot microplanter MIT-P from Sakuma Seisakusho, LTD. was used to spot 1×10^5 cfu (colony forming unit) of skin-related bacteria and standard bacteria, and the resultants were cultured at 37° C. for 18 hours. Yeast and filamentous bacteria were spotted for 5000 cfu (except Cg-1 was 50˜100 cfu) and cultured at 27° C. for 72 hours. Anaerobic bacteria were cultured at 37° C. for 72 hours under anaerobic conditions (using BBL gas pack anaerobic system). After completion of cultivation, growth of each bacterium was compared with that in a petri dish with alcohol alone (blank). A concentration of a sample without a bacterium growth was determined as the minimum inhibitory concentration (MIC).
(§3) As comparative substances, butylparaben (BPHB) and triclosan were determined as well.

[2] = test system: Propionibacterium acnes JCM 6473; test: MIC by Agar Dilution Test, Pa-2; details: Cutibacterium acnes, read-out: Minimum inhibitory concentration (MIC)
Procedure: as §1, §2, §3

[3] = test system: Bacillus subtilis PCI 219 IFO 3134; test: MIC by Agar Dilution Test, Bs-1; details: read-out: Minimum inhibitory concentration (MIC)
Procedure: as §1, §2, §3

[4] = test system: Bacteroides fragilis GM 7000 JCM 5560; test: MIC by Agar Dilution Test, Bf-1; details: read-out: Minimum inhibitory concentration (MIC)
Procedure: as §1, §2, §3

[5] = test system: Propionibacterium acnes ATCC 6919; test: MIC by Agar Dilution Test, Pa-3; details: Cutibacterium acnes, read-out: Minimum inhibitory concentration (MIC)
Procedure: as §1, §2, §3

[6] = test system: Staphyrococcus aureus ATCC 6538; test: MIC by Agar Dilution Test, Sa-4; details: read-out: Minimum inhibitory concentration (MIC)
Procedure: as §1, §2, §3

[7] = test system: Actinomyces viscosus JCM 8352; test: MIC by Agar Dilution Test, Av-1; details: read-out: Minimum inhibitory concentration (MIC)
Procedure: as §1, §2, §3

[8] = test system: Corynebacterium xerosis JCM 1324; test: MIC by Agar Dilution Test, Cx-2; details: read-out: Minimum inhibitory concentration (MIC)
Procedure: as §1, §2, §3

[9] = test system: Fusobacterium nucleatum JCM 6328; test: MIC by Agar Dilution Test, Fn-1; details: read-out: Minimum inhibitory concentration (MIC)
Procedure: as §1, §2, §3

[10] = test system: Malassezia furfur IFO 0656; test: MIC by Agar Dilution Test, Mf-1; details: read-out: Minimum inhibitory concentration (MIC)
Procedure: as §1, §2, §3

[11] = test system: Staphyrococcus aureus 209P IAM 12082; test: MIC by Agar Dilution Test, Sa-3; details: read-out: Minimum inhibitory concentration (MIC)
Procedure: as §1, §2, §3

[12] = test system: Prevotella intermedia JCM 6322; test: MIC by Agar Dilution Test, Pt-1; details: read-out: Minimum inhibitory concentration (MIC)
Procedure: as §1, §2, §3

[13] = test system: Staphyrococcus epidermidis JCM 2414; test: MIC by Agar Dilution Test, Se-1; details: read-out: Minimum inhibitory concentration (MIC)
Procedure: as §1, §2, §3

[14] = test system: Corynebacterium minutissimum IFO 15361; test: MIC by Agar Dilution Test, Cm-1; details: read-out: Minimum inhibitory concentration (MIC)
Procedure: as §1, §2, §3

[15] = test system: Porphyromonas gingivalis JCM 8525; test: MIC by Agar Dilution Test, Pg-1; details: read-out: Minimum inhibitory concentration (MIC)
Procedure: as §1, §2, §3

[16] = test system: Streptococcus mutans JCM 5175; test: MIC by Agar Dilution Test, Su-1; details: read-out: Minimum inhibitory concentration (MIC)
Procedure: as §1, §2, §3

[17] = test system: Staphyrococcus epidermidis ATCC 12228; test: MIC by Agar Dilution Test, Se-3; details: read-out: Minimum inhibitory concentration (MIC)
Procedure: as §1, §2, §3

[18] = test system: Actinomyces naeslundii JCM 8350; test: MIC by Agar Dilution Test, Aa-1; details: read-out: Minimum inhibitory concentration (MIC)
Procedure: as §1, §2, §3

MIC ([1]; Se-2, Mueller-Hinton Medium, 1×10^5 cfu, 37° C. for 18 hours): 3.1 µg/mL (≈ 9.16 µM) | MIC ([2]; JCM6473, Pa-2, Trypticase Soy agar, 37° C. for 72 hours, anaerobic conditions): 3.1 µg/mL (≈ 9.16 µM) | MIC ([3]; IFO3134, Bs-1, Mueller-Hinton Medium, 1×10^5 cfu, 37° C. for 18 hours): 3.1 µg/mL (≈ 9.16 µM) | MIC ([4]; JCM5560, Bf-1, Trypticase Soy agar, 37° C. for 72 hours, anaerobic conditions): 1.6 µg/mL (≈ 4.73 µM) | MIC ([5]; ATCC6919, Pa-3, Trypticase Soy agar, 37° C. for 72 hours, anaerobic conditions): 3.1 µg/mL (≈ 9.16 µM) | MIC ([6]; Sa-4, Mueller-Hinton Medium, 1×10^5 cfu, 37° C. for 18 hours): 3.1 µg/mL (≈ 9.16 µM) | MIC ([7]; JCM8352, Av-1, Trypticase Soy agar, 37° C. for 72 hours, anaerobic conditions): 3.1 µg/mL (≈ 9.16 µM) | MIC ([8]; JCM1324, Cx-2, Mueller-Hinton Medium, 1×10^5 cfu, 37° C. for 18 hours): 3.1 µg/mL (≈ 9.16 µM) | MIC ([9]; JCM6328, Fn-1, Trypticase Soy agar, 37° C. for 72 hours, anaerobic conditions): 1.6 µg/mL (≈ 4.73 µM) | MIC ([10]; Mf-1 (yeast), Sabroud Medium, 5000 cfu, 27° C. for 72 hours): 3.1 µg/mL (≈ 9.16 µM) | MIC ([11]; Sa-3, Mueller-Hinton Medium, 1×10^5 cfu, 37° C. for 18 hours): 3.1 µg/mL (≈ 9.16 µM) | MIC ([12]; JCM6322, Pt-1, Trypticase Soy agar, 37° C. for 72 hours, anaerobic conditions): 1.6 µg/mL (≈ 4.73 µM) | MIC ([13]; Se-1, Mueller-Hinton Medium, 1×10^5 cfu, 37° C. for 18 hours): 3.1 µg/mL (≈ 9.16 µM) | MIC ([14]; IFO15361, Cm-1, Mueller-Hinton Medium, 1×10^5 cfu, 37° C. for 18 hours): 3.1 µg/mL (≈ 9.16 µM) | MIC ([15]; JCM8525, Pg-1, Trypticase Soy agar, 37° C. for 72 hours, anaerobic conditions): 1.6 µg/mL (≈ 4.73 µM) | MIC ([16]; JCM5175, Su-1, Trypticase Soy agar, 37° C. for 72 hours, anaerobic conditions): 6.3 µg/mL (≈ 18.6 µM) | MIC ([17]; Se-3, Mueller-Hinton Medium, 1×10^5 cfu, 37° C. for 18 hours): 3.1 µg/mL (≈ 9.16 µM) | MIC ([18]; JCM8350, Aa-1, Trypticase Soy agar, 37° C. for 72 hours, anaerobic conditions): 3.1 µg/mL (≈ 9.16 µM)
SMILES: C=CC(C)(CCC=C(C)C)c1c2occc2c(O)c2ccc(=O)oc12 (stereo not drawn) [9-(1′,5′-dimethyl-1′-vinyl-4′-hexenyl)-4-hydroxy-7H-furo[3,2-γ][1]benzopyran-7-one]

SMILES: Oc1cc(Cl)ccc1Oc1ccc(Cl)cc1Cl [Triclosan]
MIC ([1]; 18 h): 1.6 µg/mL (≈ 5.53 µM) | MIC ([3]; IFO3134, 18 h): 0.78 µg/mL (≈ 2.69 µM) | MIC ([6]; 18 h): 1.6 µg/mL (≈ 5.53 µM) | MIC ([8]; JCM1324, 18 h): 3.1 µg/mL (≈ 10.7 µM) | MIC ([10]; 72 h): 1.6 µg/mL (≈ 5.53 µM) | MIC ([11]; 18 h): 1.6 µg/mL (≈ 5.53 µM) | MIC ([13]; 18 h): 1.6 µg/mL (≈ 5.53 µM) | MIC ([14]; IFO15361, 18 h): 1.6 µg/mL (≈ 5.53 µM) | MIC ([17]; 18 h): 1.6 µg/mL (≈ 5.53 µM)

SMILES: CCCCOC(=O)c1ccc(O)cc1 [Butylparaben, butylparaben]
MIC ([1]; 18 h): 200 µg/mL (≈ 1030 µM) | MIC ([2]; JCM6473, 72 h): 100 µg/mL (≈ 515 µM) | MIC ([3]; IFO3134, 18 h): 200 µg/mL (≈ 1030 µM) | MIC ([4]; JCM5560, 72 h): 50 µg/mL (≈ 257 µM) | MIC ([5]; ATCC6919, 72 h): 100 µg/mL (≈ 515 µM) | MIC ([6]; 18 h): 200 µg/mL (≈ 1030 µM) | MIC ([7]; JCM8352, 72 h): 100 µg/mL (≈ 515 µM) | MIC ([8]; JCM1324, 18 h): 50 µg/mL (≈ 257 µM) | MIC ([9]; JCM6328, 72 h): 100 µg/mL (≈ 515 µM) | MIC ([10]; 72 h): 100 µg/mL (≈ 515 µM) | MIC ([11]; 18 h): 100 µg/mL (≈ 515 µM) | MIC ([12]; JCM6322, 72 h): 100 µg/mL (≈ 515 µM) | MIC ([13]; 18 h): 200 µg/mL (≈ 1030 µM) | MIC ([14]; IFO15361, 18 h): 200 µg/mL (≈ 1030 µM) | MIC ([15]; JCM8525, 72 h): 50 µg/mL (≈ 257 µM) | MIC ([16]; JCM5175, 72 h): 200 µg/mL (≈ 1030 µM) | MIC ([17]; 18 h): 200 µg/mL (≈ 1030 µM) | MIC ([18]; JCM8350, 72 h): 100 µg/mL (≈ 515 µM)
